# Measured values taken from patent publication US11427549B2, “Pyrimidinyloxy benzo-fused compounds as herbicides” (FMC Corporation, priority 2017, dated 2022).
# What was measured:
# [1] = test system: barnyardgrass (Echinochloa crus-galli); test: Test A preemergence, barnyardgrass; assay type: in vivo; settings: Echinochloa crus-galli, pre-emergence, 240 h, 0 to 100 scale (0 no effect, 100 complete control), read-out: Plant response rating, Barnyardgrass; for pest or weed control at 31 g/ha: 31 g ai/ha; for pest or weed control at 125 g/ha: 125 g ai/ha
# kochia (Kochia scoparia) [2] = test: Test A preemergence, kochia; assay type: in vivo; settings: Bassia scoparia, pre-emergence, 240 h, 0 to 100 scale (0 no effect, 100 complete control), read-out: Plant response rating, Kochia; for pest or weed control at 31 g/ha: 31 g ai/ha; for pest or weed control at 125 g/ha: 125 g ai/ha
# [3] = test system: ragweed (common ragweed, Ambrosia elatior); test: Test A preemergence, ragweed; assay type: in vivo; settings: Ambrosia artemisiifolia, pre-emergence, 240 h, 0 to 100 scale (0 no effect, 100 complete control), read-out: Plant response rating, Ragweed; for pest or weed control at 31 g/ha: 31 g ai/ha; for pest or weed control at 125 g/ha: 125 g ai/ha
# [4] = test system: ryegrass, Italian (Italian ryegrass, Lolium multiflorum); test: Test A preemergence, ryegrass, Italian; assay type: in vivo; settings: Lolium multiflorum, pre-emergence, 240 h, 0 to 100 scale (0 no effect, 100 complete control), read-out: Plant response rating, Ryegrass, Italian; for pest or weed control at 31 g/ha: 31 g ai/ha; for pest or weed control at 125 g/ha: 125 g ai/ha
# [5] = test system: foxtail, green (green foxtail, Setaria viridis); test: Test A preemergence, foxtail, green; assay type: in vivo; settings: Setaria, pre-emergence, 240 h, 0 to 100 scale (0 no effect, 100 complete control), read-out: Plant response rating, Foxtail, Green; for pest or weed control at 31 g/ha: 31 g ai/ha; for pest or weed control at 125 g/ha: 125 g ai/ha
# [6] = test system: pigweed (Amaranthus retroflexus); test: Test A preemergence, pigweed; assay type: in vivo; settings: Amaranthus retroflexus, pre-emergence, 240 h, 0 to 100 scale (0 no effect, 100 complete control), read-out: Plant response rating, Pigweed; for pest or weed control at 31 g/ha: 31 g ai/ha; for pest or weed control at 125 g/ha: 125 g ai/ha
# [7] = test system: barnyardgrass (Echinochloa crus-galli); test: Test A postemergence, barnyardgrass; assay type: in vivo; settings: Echinochloa crus-galli, post-emergence, 240 h, 0 to 100 scale (0 no effect, 100 complete control), read-out: Plant response rating, Barnyardgrass; for pest or weed control at 31 g/ha: 31 g ai/ha; for pest or weed control at 125 g/ha: 125 g ai/ha
# kochia (Kochia scoparia) [8] = test: Test A postemergence, kochia; assay type: in vivo; settings: Bassia scoparia, post-emergence, 240 h, 0 to 100 scale (0 no effect, 100 complete control), read-out: Plant response rating, Kochia; for pest or weed control at 31 g/ha: 31 g ai/ha; for pest or weed control at 125 g/ha: 125 g ai/ha
# [9] = test system: ragweed (common ragweed, Ambrosia elatior); test: Test A postemergence, ragweed; assay type: in vivo; settings: Ambrosia artemisiifolia, post-emergence, 240 h, 0 to 100 scale (0 no effect, 100 complete control), read-out: Plant response rating, Ragweed; for pest or weed control at 31 g/ha: 31 g ai/ha; for pest or weed control at 125 g/ha: 125 g ai/ha
# [10] = test system: ryegrass, Italian (Italian ryegrass, Lolium multiflorum); test: Test A postemergence, ryegrass, Italian; assay type: in vivo; settings: Lolium multiflorum, post-emergence, 240 h, 0 to 100 scale (0 no effect, 100 complete control), read-out: Plant response rating, Ryegrass, Italian; for pest or weed control at 31 g/ha: 31 g ai/ha; for pest or weed control at 125 g/ha: 125 g ai/ha
# [11] = test system: pigweed (Amaranthus retroflexus); test: Test A postemergence, pigweed; assay type: in vivo; settings: Amaranthus retroflexus, post-emergence, 240 h, 0 to 100 scale (0 no effect, 100 complete control), read-out: Plant response rating, Pigweed; for pest or weed control at 31 g/ha: 31 g ai/ha; for pest or weed control at 125 g/ha: 125 g ai/ha
# [12] = test system: wheat (Triticum aestivum); test: Test A postemergence, wheat; assay type: in vivo; settings: Triticum aestivum, post-emergence, 240 h, 0 to 100 scale (0 no effect, 100 complete control), read-out: Plant response rating, Wheat; for plant injury at 31 g/ha: 31 g ai/ha; for plant injury at 125 g/ha: 125 g ai/ha
# corn (Zea mays) = test: Test A postemergence, corn; assay type: in vivo; settings: Zea mays, post-emergence, 240 h, 0 to 100 scale (0 no effect, 100 complete control); for Corn plant response rating (crop injury, 0 = no effect, 100 = complete kill) at 31 g/ha: 31 g ai/ha; for Corn plant response rating (crop injury, 0 = no effect, 100 = complete kill) at 125 g/ha: 125 g ai/ha
# [13] = test system: blackgrass (Alopecurus myosuroides); test: Test A postemergence, blackgrass; assay type: in vivo; settings: Alopecurus myosuroides, post-emergence, 240 h, 0 to 100 scale (0 no effect, 100 complete control), read-out: Plant response rating, Blackgrass; for pest or weed control at 31 g/ha: 31 g ai/ha; for pest or weed control at 125 g/ha: 125 g ai/ha
# [14] = test system: galium (catchweed bedstraw, Galium aparine); test: Test A postemergence, galium; assay type: in vivo; settings: Galium, post-emergence, 240 h, 0 to 100 scale (0 no effect, 100 complete control), read-out: Plant response rating, Galium; for pest or weed control at 31 g/ha: 31 g ai/ha; for pest or weed control at 125 g/ha: 125 g ai/ha
# rice (Oryza sativa) = test: Test B flooded paddy test, rice; settings: Oryza sativa, read-out: Plant response rating, Rice (0 to 100 scale, 0 is no effect, 100 is complete control)
# [15] = test system: ducksalad (Heteranthera limosa); test: Test B flooded paddy test, ducksalad; settings: Heteranthera limosa, read-out: Plant response rating, Ducksalad (0 to 100 scale, 0 is no effect, 100 is complete control)
# [16] = test system: barnyardgrass (Echinochloa crus-galli); test: Test B flooded paddy test, barnyardgrass; settings: Echinochloa crus-galli, read-out: Plant response rating, Barnyardgrass (0 to 100 scale, 0 is no effect, 100 is complete control)
smiles,measurement,setting,value
"O=C1O[C@@H](CCCC(F)(F)F)c2c(Oc3ncc(Cl)cn3)cccc21 [Compound 2, (3S)-4-[(5-Chloro-2-pyrimidinyl)oxy]-3-(4,4,4-trifluorobutyl)-1-(3H)-isobenzofuranone]",pest or weed control at 31 g/ha,[1],0%
same,pest or weed control at 125 g/ha,[1],0%
same,pest or weed control at 31 g/ha,kochia (Kochia scoparia) [2],0%
same,pest or weed control at 125 g/ha,kochia (Kochia scoparia) [2],0%
same,pest or weed control at 31 g/ha,[3],0%
same,pest or weed control at 125 g/ha,[3],0%
same,pest or weed control at 31 g/ha,[4],0%
same,pest or weed control at 125 g/ha,[4],0%
same,pest or weed control at 31 g/ha,[5],0%
same,pest or weed control at 125 g/ha,[5],30%
same,pest or weed control at 31 g/ha,[6],0%
same,pest or weed control at 125 g/ha,[6],20%
same,pest or weed control at 31 g/ha,[7],0%
same,pest or weed control at 125 g/ha,[7],0%
same,pest or weed control at 31 g/ha,kochia (Kochia scoparia) [8],0%
same,pest or weed control at 125 g/ha,kochia (Kochia scoparia) [8],10%
same,pest or weed control at 31 g/ha,[9],0%
same,pest or weed control at 125 g/ha,[9],30%
same,pest or weed control at 31 g/ha,[10],0%
same,pest or weed control at 125 g/ha,[10],10%
same,pest or weed control at 31 g/ha,[11],10%
same,pest or weed control at 125 g/ha,[11],50%
same,plant injury at 31 g/ha,[12],0%
same,plant injury at 125 g/ha,[12],0%
same,"Corn plant response rating (crop injury, 0 = no effect, 100 = complete kill) at 31 g/ha",corn (Zea mays),0%
same,"Corn plant response rating (crop injury, 0 = no effect, 100 = complete kill) at 125 g/ha",corn (Zea mays),10%
same,pest or weed control at 31 g/ha,[13],0%
same,pest or weed control at 125 g/ha,[13],0%
same,pest or weed control at 31 g/ha,[14],0%
same,pest or weed control at 125 g/ha,[14],10%
same,plant injury at 250 g/ha,rice (Oryza sativa),0%
same,pest or weed control at 250 g/ha,[15],0%
same,pest or weed control at 250 g/ha,[16],0%
"O=C1O[C@H](CCCC(F)(F)F)c2c(Oc3ncc(Cl)cn3)cccc21 [Compound 3, (3R)-4-[(5-Chloro-2-pyrimidinyl)oxy]-3-(4,4,4-trifluorobutyl)-1-(3H)-isobenzofuranone]",pest or weed control at 31 g/ha,[1],90%
same,pest or weed control at 125 g/ha,[1],100%
same,pest or weed control at 31 g/ha,kochia (Kochia scoparia) [2],80%
same,pest or weed control at 125 g/ha,kochia (Kochia scoparia) [2],100%
same,pest or weed control at 31 g/ha,[3],0%
same,pest or weed control at 125 g/ha,[3],0%
same,pest or weed control at 31 g/ha,[4],70%
same,pest or weed control at 125 g/ha,[4],100%
same,pest or weed control at 31 g/ha,[5],100%
same,pest or weed control at 125 g/ha,[5],100%
same,pest or weed control at 31 g/ha,[6],100%
same,pest or weed control at 125 g/ha,[6],100%
same,pest or weed control at 31 g/ha,[7],30%
same,pest or weed control at 125 g/ha,[7],90%
same,pest or weed control at 31 g/ha,kochia (Kochia scoparia) [8],90%
same,pest or weed control at 125 g/ha,kochia (Kochia scoparia) [8],100%
same,pest or weed control at 31 g/ha,[9],10%
same,pest or weed control at 125 g/ha,[9],60%
same,pest or weed control at 31 g/ha,[10],40%
same,pest or weed control at 125 g/ha,[10],100%
same,pest or weed control at 31 g/ha,[11],100%
same,pest or weed control at 125 g/ha,[11],100%
same,plant injury at 31 g/ha,[12],60%
same,plant injury at 125 g/ha,[12],90%
same,"Corn plant response rating (crop injury, 0 = no effect, 100 = complete kill) at 31 g/ha",corn (Zea mays),50%
same,"Corn plant response rating (crop injury, 0 = no effect, 100 = complete kill) at 125 g/ha",corn (Zea mays),80%
same,pest or weed control at 31 g/ha,[13],80%
same,pest or weed control at 125 g/ha,[13],100%
same,pest or weed control at 31 g/ha,[14],100%
same,pest or weed control at 125 g/ha,[14],100%
same,plant injury at 250 g/ha,rice (Oryza sativa),60%
same,pest or weed control at 250 g/ha,[15],90%
same,pest or weed control at 250 g/ha,[16],60%
"O=C1OC(CCC(F)(F)F)c2c(Oc3ncc(Cl)cn3)cccc21 (stereo not drawn) [Compound 4, 4-[(5-Chloro-2-pyrimidinyl)oxy]-3-(3,3,3-trifluoropropyl)-1(3H)-isobenzofuranone]",pest or weed control at 31 g/ha,[1],70%
same,pest or weed control at 125 g/ha,[1],100%
same,pest or weed control at 31 g/ha,kochia (Kochia scoparia) [2],90%
same,pest or weed control at 125 g/ha,kochia (Kochia scoparia) [2],100%
same,pest or weed control at 31 g/ha,[3],20%
same,pest or weed control at 125 g/ha,[3],70%
same,pest or weed control at 31 g/ha,[4],20%
same,pest or weed control at 125 g/ha,[4],100%
same,pest or weed control at 31 g/ha,[5],100%
same,pest or weed control at 125 g/ha,[5],100%
same,pest or weed control at 31 g/ha,[6],100%
same,pest or weed control at 125 g/ha,[6],100%
same,pest or weed control at 31 g/ha,[7],30%
same,pest or weed control at 125 g/ha,[7],90%
same,pest or weed control at 31 g/ha,kochia (Kochia scoparia) [8],90%
same,pest or weed control at 125 g/ha,kochia (Kochia scoparia) [8],100%
same,pest or weed control at 31 g/ha,[9],0%
same,pest or weed control at 125 g/ha,[9],80%
same,pest or weed control at 31 g/ha,[10],20%
same,pest or weed control at 125 g/ha,[10],90%
same,pest or weed control at 31 g/ha,[11],90%
same,pest or weed control at 125 g/ha,[11],100%
same,plant injury at 31 g/ha,[12],20%
same,plant injury at 125 g/ha,[12],80%
same,"Corn plant response rating (crop injury, 0 = no effect, 100 = complete kill) at 31 g/ha",corn (Zea mays),30%
same,"Corn plant response rating (crop injury, 0 = no effect, 100 = complete kill) at 125 g/ha",corn (Zea mays),80%
same,pest or weed control at 31 g/ha,[13],40%
same,pest or weed control at 125 g/ha,[13],90%
same,pest or weed control at 31 g/ha,[14],100%
same,pest or weed control at 125 g/ha,[14],100%
same,plant injury at 250 g/ha,rice (Oryza sativa),45%
same,pest or weed control at 250 g/ha,[15],100%
same,pest or weed control at 250 g/ha,[16],35%
